Several values for one entry are separate records, joined by “and”; a condition that tells them apart may be missing. Equal entries are not always repeated.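 Growth conditions: 96-well plates. Treatment: test compound, 48 hours, 5 concentrations. Analysis: linear interpolation between bracketing concentrations; unreached endpoints set to highest concentration. GI50: concentration for 50% inhibition of growth. The concentration for full growth arrest is given as TGI.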
These compounds were tested on SF-295 CNS (assay: NCI anticancer screen, dose series, 48 h).
For CCN1CCCC(NCc2c3ccccc3c(CNC3CCCN(CC)C3)c3ccccc23)C1 (centres undefined), the TGI was 14.7 µM. COc1c(O)c2c3c(c(C)cc(O)c3c1O)C(=O)C(O)(C(C)(C)C(C)=O)C2=O (centres undefined) was tested, and the GI50 was 25.2 µM and > 100 µM and the TGI was 71.2 µM and > 100 µM. With Nc1nc(N)c(N=O)c(Nc2ccc(Br)cc2)n1 the TGI was > 100 µM. Work on C[C@]12CC[C@@H]3c4ccc(O)cc4CC[C@H]3[C@@H]1C/C(=C\c1ccncc1)[C@@H]2O yielded a TGI of 70.2 µM. With S=C(/N=c1\sc(Nc2ccc(Cl)cc2)nc2sc3c(c12)CCN(N1CCc2c(sc4nc(Nc5ccc(Cl)cc5)s/c(=N\C(=S)Nc5ccc(Cl)cc5)c24)C1)C3)Nc1ccc(Cl)cc1 the TGI was > 100 µM. O=c1ccn(C2OC(CO)C(P(=O)(O)O)C2O)c(=O)[nH]1 (centres undefined) was tested, and the TGI was > 100 µM. CCC1=CC2CN3Cn4c(c(COCc5c6n(c7ccccc57)CN5CC7C=C(CC)C5C6(C(=O)OC)C7)c5ccccc54)C(C(=O)OC)(C2)C13 was tested, and the TGI was > 100 µM. For O=C(Cc1ccccc1)NN1C(=O)/C(=C\c2ccccc2)SC1=Nc1ccccc1, the TGI was > 100 µM. With COc1ccc(CC2c3c(cc(OC)c(OC)c3OC)CCN2C)cc1OC (centres undefined) the TGI was > 100 µM.

Each compound was assayed on MDA-MB-231 breast (assay: NCI anticancer screen, dose series, 48 h).
With CN(Cc1ccccc1)c1cc(=O)n(C)c(=O)[nH]1 the TGI was > 100 µM. With COc1ccc(-c2c3c([nH]c(=S)c2C#N)CC(C)(C)CC3=O)cc1 the TGI was > 100 µM. With CC(=O)Oc1cc(C(F)(F)F)ccc1C(=O)OC1(C)OC(=O)c2ccc(C(F)(F)F)cc2O1 (centres undefined) the TGI was > 100 µM. COc1cc2c(cc1OC)[C@H]1CN3CCC[C@H]3C=C1c1ccc(OC)c(O)c1-2 gave a TGI of 0.0523 µM. For CC1CN=C(N(C(=O)Nc2ccc(F)c(Cl)c2)c2ccccc2)S1 (centres undefined), the TGI was 38.9 µM. With N/C(=N\S(=O)(=O)c1c(C(F)(F)F)cccc1C(F)(F)F)Nc1ccc(Cl)cc1 the TGI was 48.6 µM. In the case of Clc1ccc(CSCCc2ccncc2)cc1Cl, the TGI is reported as 29.1 µM. With CC1(C)C2CC(=O)C1(C)C(O)C2Br (centres undefined) the TGI was > 100 µM. CCCCn1cnc2c(c(CC#N)nn2-c2ccccc2)c1=N was tested, and the TGI was > 100 µM. With C[C@]12CC[C@@H]3c4ccc(O)cc4CC[C@H]3[C@@H]1C/C(=C\c1ccncc1)[C@@H]2O the TGI was 41.2 µM. S=C(/N=c1\sc(Nc2ccc(Cl)cc2)nc2sc3c(c12)CCN(N1CCc2c(sc4nc(Nc5ccc(Cl)cc5)s/c(=N\C(=S)Nc5ccc(Cl)cc5)c24)C1)C3)Nc1ccc(Cl)cc1 showed a TGI of 35.1 µM. O=c1ccn(C2OC(CO)C(P(=O)(O)O)C2O)c(=O)[nH]1 (centres undefined) was tested, and the TGI was > 100 µM. O=C(Cc1ccccc1)NN1C(=O)/C(=C\c2ccccc2)SC1=Nc1ccccc1 was tested, and the TGI was > 100 µM.

What follows are compounds tested on HCT-116 colon (assay: NCI anticancer screen, dose series, 48 h).
Compound CC12CCC3C(CCC4CC(OC(=O)Cc5ccc(N(CCCl)CCCl)cc5)CCC43C)C1CCC(=O)N2 (centres undefined) has a TGI of 28.3 µM. CN(Cc1ccccc1)c1cc(=O)n(C)c(=O)[nH]1 was tested, and the TGI was > 100 µM. With COc1ccc(-c2c3c([nH]c(=S)c2C#N)CC(C)(C)CC3=O)cc1 the TGI was > 100 µM. In the case of CC(=O)Oc1cc(C(F)(F)F)ccc1C(=O)OC1(C)OC(=O)c2ccc(C(F)(F)F)cc2O1 (centres undefined), the TGI is reported as > 100 µM. For COc1cc2c(cc1OC)[C@H]1CN3CCC[C@H]3C=C1c1ccc(OC)c(O)c1-2, the TGI was 0.00302 µM. Cc1cn([C@@H]2C[C@H](CO)[C@@H](O)C2)c(=O)[nH]c1=O was tested, and the TGI was > 100 µM. CC1CN=C(N(C(=O)Nc2ccc(F)c(Cl)c2)c2ccccc2)S1 (centres undefined) gave a TGI of 67.8 µM. For C=Cc1ccc(C)[n+](C[Si](C)(C)O[Si](C)(C)C[n+]2cc(C=C)ccc2C)c1, the TGI was > 100 µM. O=c1[nH]cnc(NC2C=C(CO)C(O)C2O)c1[N+](=O)[O-] (centres undefined) was tested, and the TGI was > 53.1 µM. With CC(=O)OCC1OC(n2cc(I)c(=O)[nH]c2=O)C(OC(C)=O)C(OC(C)=O)C1OC(C)=O (centres undefined) the TGI was > 100 µM. For COc1ccc(/C=C2\C[C@H]3[C@@H]4CCC5=C/C(=N/O)CC[C@]5(C)[C@H]4CC[C@]3(C)\C2=N\O)cc1OC, the TGI was > 100 µM. For C(=Nc1ccc(-c2nc3ccccc3o2)cc1)c1ccco1, the TGI was > 100 µM. CC(C(=O)N1C(=O)N(C(=O)C(C)C(O)c2ccccc2)C2CCCCC21)C(O)c1ccccc1 (centres undefined) was tested, and the TGI was > 100 µM. For O=C1NCCS(=O)(=O)N[C@@H](CC2=CC=CCC2)C(=O)N2CCCC12 (some centres undefined), the TGI was > 100 µM. In the case of CC(C)=CCC/C(C)=C/COC(C)(C)C1=CCC(C)CC1 (centres undefined) (tested in a mixture with another compound), the TGI is reported as > 100 µM. Work on O=C(Nc1ccccc1F)c1cc2ccc(O)cc2oc1=Nc1ccccc1F yielded a TGI of 4.01 µM. For N/C(=N\S(=O)(=O)c1c(C(F)(F)F)cccc1C(F)(F)F)Nc1ccc(Cl)cc1, the TGI was > 100 µM. Clc1ccc(CSCCc2ccncc2)cc1Cl was tested, and the TGI was 31.5 µM. For CC1(C)C2CC(=O)C1(C)C(O)C2Br (centres undefined), the TGI was > 100 µM. For CC(C)(C)OC(=O)NCCC(N)=S, the TGI was > 100 µM. With CCCCn1cnc2c(c(CC#N)nn2-c2ccccc2)c1=N the TGI was > 100 µM. In the case of COc1ccc(-c2oc(/C=N/NC(N)=S)c([N+](=O)[O-])c2-c2ccc(OC)c(OC)c2)cc1OC, the TGI is reported as 41.1 µM. Compound CCN1CCCC(NCc2c3ccccc3c(CNC3CCCN(CC)C3)c3ccccc23)C1 (centres undefined) has a TGI of 23.3 µM. COc1c(O)c2c3c(c(C)cc(O)c3c1O)C(=O)C(O)(C(C)(C)C(C)=O)C2=O (centres undefined) was tested, and the TGI was > 100 µM. Work on Nc1nc(N)c(N=O)c(Nc2ccc(Br)cc2)n1 yielded a TGI of 37.8 µM. C[C@]12CC[C@@H]3c4ccc(O)cc4CC[C@H]3[C@@H]1C/C(=C\c1ccncc1)[C@@H]2O was tested, and the TGI was > 100 µM. In the case of S=C(/N=c1\sc(Nc2ccc(Cl)cc2)nc2sc3c(c12)CCN(N1CCc2c(sc4nc(Nc5ccc(Cl)cc5)s/c(=N\C(=S)Nc5ccc(Cl)cc5)c24)C1)C3)Nc1ccc(Cl)cc1, the TGI is reported as 31.7 µM. For O=c1ccn(C2OC(CO)C(P(=O)(O)O)C2O)c(=O)[nH]1 (centres undefined), the TGI was > 100 µM. In the case of CCC1=CC2CN3Cn4c(c(COCc5c6n(c7ccccc57)CN5CC7C=C(CC)C5C6(C(=O)OC)C7)c5ccccc54)C(C(=O)OC)(C2)C13, the TGI is reported as > 100 µM. O=C(Cc1ccccc1)NN1C(=O)/C(=C\c2ccccc2)SC1=Nc1ccccc1 was tested, and the TGI was > 100 µM. For COc1ccc(CC2c3c(cc(OC)c(OC)c3OC)CCN2C)cc1OC (centres undefined), the TGI was > 100 µM.

Source: PubChem BioAssay (NCI)
